Assay [1] deals with T1, recombinant human PPARα (GST-PPARα) (Homo sapiens, UniProt Q07869).
T1 construct: The full length human cDNAs for PPARδ and PPARα were subcloned into the pGEX-KT expression vector; made in house; host or cells: E. coli
T1 sequence (Q07869 1-468): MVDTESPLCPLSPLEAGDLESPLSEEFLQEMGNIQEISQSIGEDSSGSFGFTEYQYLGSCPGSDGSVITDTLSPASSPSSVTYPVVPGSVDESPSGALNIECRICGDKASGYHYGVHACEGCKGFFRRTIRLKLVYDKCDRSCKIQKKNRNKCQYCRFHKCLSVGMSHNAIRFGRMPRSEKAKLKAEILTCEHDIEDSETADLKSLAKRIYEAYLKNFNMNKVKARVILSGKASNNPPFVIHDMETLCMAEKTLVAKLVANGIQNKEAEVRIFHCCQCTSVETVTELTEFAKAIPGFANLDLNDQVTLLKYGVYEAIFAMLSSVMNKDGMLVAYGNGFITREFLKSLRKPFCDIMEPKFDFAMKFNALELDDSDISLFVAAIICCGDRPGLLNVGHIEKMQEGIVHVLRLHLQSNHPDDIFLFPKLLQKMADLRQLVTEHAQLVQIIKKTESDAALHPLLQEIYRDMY
Nature of the assay: Scintillation Proximity Assay, displacement of [3H2]Compound A from PPARα. Format: binding. An excerpt: (§1) As an approach to identifying human PPAR agonists, a Scintillation Proximity Assay was used to characterize PPAR-γ, PPAR-δ, and PPAR-α ligands.
(§2) Human PPARγ2, human PPARδ and human PPARα were expressed as GST-fusion proteins in E. coli. The full length human cDNA for PPARγ 2 was subcloned into the pGEX-2 T expression vector (Amersham Pharmacia Biotech, Inc.). The full length human cDNAs for PPARδ and PPARα were subcloned into the pGEX-KT expression vector (Amersham Pharmacia Biotech, Inc.). E. coli containing the respective plasmids were propagated, induced, and harvested by centrifugation. The resuspended pellet was broken in a French press and debris removed by centrifugation. Recombinant human PPAR receptors were purified by affinity chromatography on glutathione sepharose. After application to the column, and one wash, receptor was eluted with glutathione. Glycerol (10%) was added to stabilize the receptor and aliquots were stored at −80° C.
(§3) After incubation for ˜16 h at 15° C. with shaking, the assay plates were counted in a Packard Topcount with quench correction.
For orientation: In a scintillation proximity assay essentially only radioactivity close to the scintillant gives light.

Assay [2] has as its target T2, recombinant human PPARγ (GST-PPARγ) (Homo sapiens, UniProt P37231).
T2 construct: The full length human cDNA for PPARγ 2 was subcloned into the pGEX-2 T expression vector; made in house; host or cells: E. coli
T2 sequence (P37231 1-505): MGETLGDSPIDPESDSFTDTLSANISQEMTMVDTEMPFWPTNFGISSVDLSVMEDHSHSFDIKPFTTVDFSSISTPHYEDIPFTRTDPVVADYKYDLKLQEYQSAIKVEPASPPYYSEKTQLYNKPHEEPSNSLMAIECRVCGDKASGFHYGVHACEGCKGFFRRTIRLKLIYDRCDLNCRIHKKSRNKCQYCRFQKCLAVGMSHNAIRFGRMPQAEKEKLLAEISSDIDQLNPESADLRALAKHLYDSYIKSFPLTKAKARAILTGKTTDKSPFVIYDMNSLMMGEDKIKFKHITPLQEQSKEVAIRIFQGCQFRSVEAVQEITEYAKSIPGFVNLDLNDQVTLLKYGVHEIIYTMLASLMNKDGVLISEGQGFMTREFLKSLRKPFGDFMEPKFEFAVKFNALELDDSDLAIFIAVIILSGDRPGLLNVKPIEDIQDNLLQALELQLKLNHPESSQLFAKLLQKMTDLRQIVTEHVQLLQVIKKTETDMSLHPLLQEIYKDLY
Nature of the assay: Scintillation Proximity Assay, displacement of [3H2]Compound A from PPARγ. Format: binding. Particulars: SPA, radioligand.
Source text: as §1, §2, §3

Assay [3] concerns PPAR-α, PPAR-γ and PPAR-δ. As to the kind of experiment: Classification of ligands according to their PPAR activity (Table A). On the set-up: species or system human.
For assay [4], the target named is T3, recombinant human PPARδ (GST-PPARδ) (Homo sapiens, UniProt Q03181).
T3 construct: The full length human cDNAs for PPARδ and PPARα were subcloned into the pGEX-KT expression vector; made in house; host or cells: E. coli
T3 sequence (Q03181 1-441): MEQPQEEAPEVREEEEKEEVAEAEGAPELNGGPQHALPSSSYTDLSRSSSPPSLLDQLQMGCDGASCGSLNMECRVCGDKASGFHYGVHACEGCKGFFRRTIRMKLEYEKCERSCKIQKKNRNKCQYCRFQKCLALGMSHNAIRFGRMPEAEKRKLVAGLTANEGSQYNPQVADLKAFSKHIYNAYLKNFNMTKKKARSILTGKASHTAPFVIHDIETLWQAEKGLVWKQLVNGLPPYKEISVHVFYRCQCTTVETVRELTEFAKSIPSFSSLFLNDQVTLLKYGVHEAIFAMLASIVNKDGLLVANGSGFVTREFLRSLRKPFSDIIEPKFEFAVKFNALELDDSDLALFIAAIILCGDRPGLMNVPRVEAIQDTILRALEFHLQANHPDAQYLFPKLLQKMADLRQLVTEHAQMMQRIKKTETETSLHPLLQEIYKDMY
Nature of the assay: Scintillation Proximity Assay, displacement of [3H2]Compound B from PPARδ. The format is binding. Particulars: human PPARδ binding; read-out: IC50 (μM: SPA or BND) Delta.
Source text: as §1, §2, §3

The subject of assay [5] is adjuvant-induced arthritis in female Lewis rats. The protocol:
Nine groups of 10 rats each were injected with an emulsion containing 0.5 mg of Mycobacterium butyricum in 0.1 ml of light mineral oil, and a negative control group of 10 rats was not injected with adjuvant. Body weights, primary (injected) and contralateral (non-injected) paw volumes (determined by mercury displacement plethysmography) and lateral radiographs (obtained under Ketamine and Xylazine anesthesia) were determined before (day-1) and at various time points including 21 days following adjuvant injection. The rats were anesthetized with an intramuscular injection of 0.03-0.1 ml of a combination of Ketamine (87 mg/kg) and Xylazine (13 mg/kg) for radiographs and injection of adjuvant. Lateral to medial radiographs were made of both hind paws on days 0 and 21 for using the Faxitron (45 kVp, 30 seconds or 45 kVp, 1 second) and Kodak X-OMAT TL film, and were developed in an automatic processor. […] Specific criteria were used to establish the numerical grade of severity for each radiographic change. The maximum possible score per foot was 26. Compounds or vehicle were administered prophylactically beginning post injection of adjuvant and continuing for 21 days. The Compounds were prepared weekly, refrigerated in the dark until used, and vortex mixed immediately prior to administration. […] The liver, thymus and spleens of all rats were removed and weighed and both hind paws were removed and radiographed.
Two-factor (‘treatment’ and ‘time’) analysis of variance with repeated measures on ‘time’ were applied to the percent changes for body weight and foot volumes and to the rank-transformed radiographic total scores. A post hoc Dunnett's test was conducted to compare the effect of treatments to vehicle. A one-way analysis of variance was applied to the thymic and spleen weights followed by the Dunnett's test to compare the effect of treatments to vehicle.
Compounds or vehicle (0.5% Methocel in sterile water) were administered by oral gavage once daily for 21 days following induction of arthritis in female Lewis rats via the sub plantar injection of 0.1 ml of light mineral oil containing 0.5 mg of Mycobacterium butyricum. Control animals were not injected with adjuvant. Body weights were measured 1 day prior to (i.e. day 0) and at 14 and 21 days post induction of arthritis. The data in Table 1 represent the mean increase or decrease in body weight ±1 standard deviation for groups of 9 to 10 animals.
Compounds or vehicle (0.5% Methocel in sterile water) were administered by oral gavage once daily for 21 days following induction of arthritis in female Lewis rats via the sub plantar injection of 0.1 ml of light mineral oil containing 0.5 mg of Mycobacterium butyricum. Control animals were not injected with adjuvant.
Injected foot volumes were measured by mercury displacement plethysmography prior to induction of arthritis, and on days 4, 14 and 21 post induction of arthritis. The data represent the mean increase in foot volume ±1 standard deviation for groups of 9 to 10 animals. The extent of paw swelling in compound-treated animals was compared to the mean of that in the vehicle-treated group, and percentage inhibition was calculated for each dose level of compound.
Contralateral foot volumes were measured by mercury displacement plethysmography prior to, and at days 14 and 21 post induction of arthritis. The data represent the mean increase in foot volume ±1 standard deviation for groups of 9 to 10 animals. The extent of paw swelling in compound-treated animals was compared to the mean of that in the vehicle-treated group, and percentage inhibition was calculated for each dose level of compound.
[…] Data represent the mean weights of organs in mg ±1 standard deviation for groups of 9 to 10 animals.
Total radiographic scores were derived from examination of lateral radiographs obtained prior to, and on day 21 post induction of arthritis.

Where [6] appears, read: weight at necropsy, day of euthanasia 21 (Compound 1, indomethacin) or 15 (Compounds 2-6), mean ± SD.

The source of these data is patent publication US20040242459A1 (priority 2001, published 2004).

Broadly, the Kd is the equilibrium constant for the complex coming apart.

For the compound `CCCc1c(OCCCCOc2cccc(CC(=O)O)c2)ccc2c(-c3ccccc3)noc12` [Compound A, (3-(4-(3-phenyl-7-propyl-6-benz-[4,5]-isoxazoloxy)butyloxy))phenylacetic acid, reference compound], the Kd in assay [1] (SPA, radioligand) is around 10 nM; in assay [2], around 2.7 nM.
For the compound `O=C(O)c1c(Sc2ccccc2)c2cc(Cl)ccc2n1Cc1ccc(Cl)cc1` [Compound 3], the IC50 in assay [1] (human PPARα binding, read-out: IC50 (μM: SPA or BND) Alpha) was above 10 µM. In addition, the “PPAR Activity” value in assay [3] is “Gamma Antagonist”. Also, the IC50 in assay [4] is above 50 µM. The “Change in Secondary Foot Volume Day 14-0” value in assay [5] (contralateral paw, p.o. q.d., Compounds 1, 2, 4, 6 30 mg/kg/day, Compound 3 50, Compound 5 100, indomethacin 2, mean ± SD) came out at 869 ± 291 µL. In assay [5] (contralateral paw, same doses p.o. q.d.), the “Secondary Foot Volume % Inhibition Compared to Vehicle Day 14-0” value worked out at 0%. In addition, in assay [5] (injected paw, p.o. q.d., Compounds 1, 2, 4, 6 30 mg/kg/day, Compound 3 50, Compound 5 100, indomethacin 2, mean ± SD), the “Change in Primary Foot Volume Day 4-0” value came out at 1853 ± 262 µL. For the same compound, the “Primary Foot Volume % Inhibition Compared to Vehicle Day 4-0” value in assay [5] (injected paw, same doses p.o. q.d.) is 0%. Besides, in assay [5] (injected paw, same doses p.o. q.d., mean ± SD), the “Change in Primary Foot Volume Day 14-0” value came out at 2606 ± 587 µL. The “change in body weight Day 14-0” value in assay [5] (p.o. q.d., Compounds 1, 2, 4, 6 30 mg/kg/day, Compound 3 50, Compound 5 100, indomethacin 2 mg/kg/day, mean ± SD) is recorded as −6.6 ± 6.1 grams. In assay [5] (up to day 14, rats then euthanized), the “prevention of swelling of primary or secondary paws” value is “failed to prevent swelling of either the primary or secondary paws”. For the same compound, in assay [5] (setting [6]), the “Spleen” value was 720.5 ± 155.1 mg and the “Thymus” value amounted to 152.7 ± 27.9 mg.
